According to ChEMBL document CHEMBL6092194, “Development of membrane-targeting chalcone derivatives as antibacterial agents against multidrug-resistant bacteria” (Eur J Med Chem, 2024):

Assays:
Klebsiella pneumoniae = assay: Antibacterial activity against Klebsiella pneumoniae ATCC10031 by broth microdilution assay; type: functional
Acinetobacter baumannii = assay: Antibacterial activity against Acinetobacter baumannii ATCC19606 by broth microdilution assay; type: functional
Bacillus subtilis = assay: Antibacterial activity against penicillin-susceptible Bacillus subtilis ATCC9372 by broth microdilution assay; type: functional
Staphylococcus aureus [1] = assay: Antibacterial activity against penicillin-resistant Staphylococcus aureus ATCC43300 by broth microdilution assay; type: functional
[2] = Hemolytic activity in red blood cells (unknown origin); type: toxicity, cell-based, Erythrocyte
Enterococcus faecalis = assay: Antibacterial activity against vancomycin susceptible Enterococcus faecalis ATCC29212 by broth microdilution assay; type: functional
Staphylococcus aureus [3] = assay: Antibacterial activity against penicillin-resistant Staphylococcus aureus ATCC31007 by broth microdilution assay; type: functional
[4] = system: Staphylococcus epidermidis; assay: Antibacterial activity against erythromycin-susceptible Staphylococcus epidermidis ATCC12228 by broth microdilution assay; type: functional
Pseudomonas aeruginosa = assay: Antibacterial activity against penicillin-susceptible Pseudomonas aeruginosa ATCC27853 by broth microdilution method; type: functional
Staphylococcus aureus [5] = assay: Antibacterial activity against erythromycin susceptible Staphylococcus aureus ATCC25923 by broth microdilution assay; type: functional
[6] = Selectivity index, ratio of HC50 for hemolytic activity in red blood cells (unknown origin) to MIC for antibacterial activity against penicillin-resistant Staphylococcus aureus ATCC43300; type: toxicity, cell-based, RBC; conditions: read-out: Selectivity Index
Escherichia coli = assay: Antibacterial activity against penicillin-susceptible Escherichia coli ATCC25922 by broth microdilution method; type: functional

| SMILES | MIC (Klebsiella pneumoniae) | MIC (Acinetobacter baumannii) | MIC (Bacillus subtilis) | MIC (Staphylococcus aureus [1]) | HC50 [2] | MIC (Enterococcus faecalis) | MIC (Staphylococcus aureus [3]) | MIC [4] | MIC (Pseudomonas aeruginosa) | MIC (Staphylococcus aureus [5]) | selectivity ratio [6] | MIC (Escherichia coli) |
| --- | --- | --- | --- | --- | --- | --- | --- | --- | --- | --- | --- | --- |
| CCCCCCCCOc1cc[n+](CCCOc2ccc(/C=C/C(=O)c3ccc(OCCC[n+]4ccc(OCCCCCCCC)cc4)cc3)cc2)cc1.[Br-].[Br-] | 64 µg/mL | 128 µg/mL | 64 µg/mL | 32 µg/mL | 180 µg/mL | 64 µg/mL | 64 µg/mL | 32 µg/mL | 128 µg/mL | 64 µg/mL | 5.6 | 128 µg/mL |
| O=C(CC12CC3CC(CC(C3)C1)C2)Nc1cc[n+](CCCOc2ccc(C(=O)/C=C/c3ccccc3)cc2)cc1.[Br-] | > 128 µg/mL | > 128 µg/mL | 64 µg/mL | 128 µg/mL | 708 µg/mL | 64 µg/mL | 64 µg/mL | 64 µg/mL | > 128 µg/mL | 32 µg/mL | 5.5 | > 128 µg/mL |
| CCCCCC[N+](C)(C)CCCCCOc1ccc(C(=O)/C=C/c2ccccc2)cc1.[Br-] | 32 µg/mL | 64 µg/mL | 8 µg/mL | 16 µg/mL | 112 µg/mL | 16 µg/mL | 16 µg/mL | 8 µg/mL | > 128 µg/mL | 2 µg/mL | 7 | > 128 µg/mL |
| CCCCCCCC(=O)Nc1cc[n+](CCCOc2ccc(C(=O)/C=C/c3ccccc3)cc2)cc1.[Br-] | 16 µg/mL | 128 µg/mL | 2 µg/mL | 2 µg/mL | 887 µg/mL | 4 µg/mL | 2 µg/mL | 8 µg/mL | > 128 µg/mL | 2 µg/mL | 443 | 32 µg/mL |
| CCCCCCCCCC[N+](C)(C)CCCOc1ccc(C(=O)/C=C/c2ccccc2)cc1.[Br-] | 128 µg/mL | > 128 µg/mL | 8 µg/mL | 4 µg/mL | 756 µg/mL | 64 µg/mL | 4 µg/mL | 16 µg/mL | > 128 µg/mL | 8 µg/mL | 189 | > 128 µg/mL |
| CCCCCCCCCCCC[N+](C)(C)CCCOc1ccc(C(=O)/C=C/c2ccccc2)cc1.[Br-] | 64 µg/mL | 64 µg/mL | 4 µg/mL | 4 µg/mL | 220 µg/mL | > 128 µg/mL | 16 µg/mL | 8 µg/mL | > 128 µg/mL | 4 µg/mL | 55.1 | 128 µg/mL |
| CCCCCCCC[N+](C)(C)CCCOc1ccc(C(=O)/C=C/c2ccccc2)cc1.[Br-] | 4 µg/mL | 8 µg/mL | 2 µg/mL | 1 µg/mL | 17.2 µg/mL | 8 µg/mL | 4 µg/mL | 1 µg/mL | 64 µg/mL | 1 µg/mL | 17.2 | 64 µg/mL |
| CCCC[N+](C)(C)CCCOc1ccc(/C=C/C(=O)c2ccc(OCCC[N+](C)(C)CCCC)cc2)cc1.[Br-].[Br-] | 128 µg/mL | > 128 µg/mL | 8 µg/mL | 8 µg/mL | 590 µg/mL | 4 µg/mL | 2 µg/mL | 2 µg/mL | > 128 µg/mL | 2 µg/mL | 73.8 | 128 µg/mL |
| CCCCCCCCCCOc1cc[n+](CCCOc2ccc(/C=C/C(=O)c3ccc(OCCC[n+]4ccc(OCCCCCCCCCC)cc4)cc3)cc2)cc1.[Br-].[Br-] | 16 µg/mL | 32 µg/mL | 128 µg/mL | 128 µg/mL | 161 µg/mL | 128 µg/mL | 128 µg/mL | 8 µg/mL | > 128 µg/mL | 128 µg/mL | 1.3 | 128 µg/mL |
| CCCCCCCC[N+](C)(C)CCCCCOc1ccc(C(=O)/C=C/c2ccccc2)cc1.[Br-] | 8 µg/mL | 8 µg/mL | 4 µg/mL | 2 µg/mL | 50.5 µg/mL | 2 µg/mL | 4 µg/mL | 4 µg/mL | > 128 µg/mL | 2 µg/mL | 25.2 | 128 µg/mL |
| CCCCCCCCCCCC(=O)Nc1cc[n+](CCCOc2ccc(C(=O)/C=C/c3ccccc3)cc2)cc1.[Br-] | > 128 µg/mL | > 128 µg/mL | > 128 µg/mL | 16 µg/mL | 753 µg/mL | 8 µg/mL | 8 µg/mL | 128 µg/mL | > 128 µg/mL | 8 µg/mL | 47.1 | > 128 µg/mL |
| CCCCCCCC[N+](C)(C)CCCCCCCOc1ccc(C(=O)/C=C/c2ccccc2)cc1.[Br-] | 8 µg/mL | 32 µg/mL | 2 µg/mL | 2 µg/mL | 105 µg/mL | 4 µg/mL | 4 µg/mL | 2 µg/mL | > 128 µg/mL | 2 µg/mL | 52.6 | 128 µg/mL |
| CCCC[N+](C)(C)CCCCCCCOc1ccc(C(=O)/C=C/c2ccccc2)cc1.[Br-] | 32 µg/mL | 64 µg/mL | 32 µg/mL | 8 µg/mL | 130 µg/mL | 32 µg/mL | 16 µg/mL | 16 µg/mL | > 128 µg/mL | 8 µg/mL | 16.3 | > 128 µg/mL |
| CCCCCCCC[N+](C)(C)CCCOc1ccc(/C=C/C(=O)c2ccc(OCCC[N+](C)(C)CCCCCCCC)cc2)cc1.[Br-].[Br-] | 16 µg/mL | 32 µg/mL | 1 µg/mL | 1 µg/mL | 129 µg/mL | 2 µg/mL | 1 µg/mL | 1 µg/mL | 16 µg/mL | 1 µg/mL | 129 | 4 µg/mL |
| CCCCCCCCCCCC[N+](C)(C)CCCCCOc1ccc(C(=O)/C=C/c2ccccc2)cc1.[Br-] | > 128 µg/mL | 128 µg/mL | 8 µg/mL | 8 µg/mL | 167 µg/mL | 16 µg/mL | 16 µg/mL | 8 µg/mL | > 128 µg/mL | 8 µg/mL | 20.9 | > 128 µg/mL |
| CCCC[N+](C)(C)CCCCCOc1ccc(C(=O)/C=C/c2ccccc2)cc1.[Br-] | 64 µg/mL | 128 µg/mL | 32 µg/mL | 32 µg/mL | 538 µg/mL | 32 µg/mL | 64 µg/mL | 16 µg/mL | > 128 µg/mL | 8 µg/mL | 16.8 | > 128 µg/mL |
| CCCC[N+](C)(C)CCCOc1ccc(C(=O)/C=C/c2ccccc2)cc1.[Br-] | 128 µg/mL | > 128 µg/mL | 64 µg/mL | 32 µg/mL | 96.3 µg/mL | 64 µg/mL | 64 µg/mL | 16 µg/mL | > 128 µg/mL | 16 µg/mL | 3 | 128 µg/mL |
| CCCCCCCCCCCCNC(=O)C[N+](C)(C)CCCOc1ccc(/C=C/C(=O)c2ccc(OCCC[N+](C)(C)CC(=O)NCCCCCCCCCCCC)cc2)cc1.[Br-].[Br-] | > 128 µg/mL | > 128 µg/mL | 128 µg/mL | > 128 µg/mL | 703 µg/mL | > 128 µg/mL | > 128 µg/mL | > 128 µg/mL | > 128 µg/mL | > 128 µg/mL | < 5.5 | > 128 µg/mL |
